System: Wistar rats
Experiment: Control of essential hypertension in Wistar rats (testosterone propionate-induced blood pressure elevation)
Assay type: in vivo, rat
Protocol: Unless otherwise specified, all compositions of interest were administered to the animals by intragastric feeding.
To test the ability of the activated yeast compositions to reduce blood pressure, thirty-two healthy Wistar rats of average weight of about 200±20 g (8-10 months old, half of them male and the other half female) were randomly divided into four equal groups, Groups A, B, C and D. Blood pressure of each rat was measured with a manometer for three consecutive days. After three days, each rat was subcutaneously injected with 4 mg of testosterone propionate in 0.4 ml of sesame oil per day for fourteen consecutive days.
A composition of interest (2 ml/kg/day) was then administered to each rat for sixteen consecutive days, while their blood pressure level was monitored every four days. Rats in Groups A, B, C and D received distilled water, reserpine, the activated yeast composition and the control yeast composition, respectively.

COC(=O)[C@H]1[C@H]2C[C@@H]3c4[nH]c5cc(OC)ccc5c4CCN3C[C@H]2C[C@@H](OC(=O)c2cc(OC)c(OC)c(OC)c2)[C@@H]1OC [reserpine]
Blood Pressure After Administration of a Composition (Wistar rats made hypertensive with 4 mg/day s.c. testosterone propionate for 14 days, composition 2 ml/kg/day intragastric for sixteen consecutive days): 15.3 ± 0.89 kPa
Change in Blood Pressure (Value in Col. 3 − Value in Col. 2) (after administration of composition vs after testosterone injection, 2 ml/kg/day intragastric, 16 days): 1.4 ± 0.33 kPa

— US20070053931A1, “Dietary supplements for treating hypertension” (ULTRA BIOTECH LIMITED, priority 2002, published 2007)
